From patent publication US20130101684A1, “Compounds, Compositions, And Methods For Reducing Or Eliminating Bitter Taste” (Chromocell Corporation, priority 2010, published 2013)
Like-named read-outs stand apart in the source and are kept apart here.

How the values were obtained:
Type in all cases: in vivo, humans
[1] = system: bitter taste of an aqueous solution of KCl; experiment: Sip and spit taste test of aqueous KCl test solutions, bitterness rated 0-15 against KCl solution standards; conditions: aqueous KCl 4.85 g/L, 1% EtOH, human panel, vs KCl solution standard, dash = at none of the tested conc.
Method: Edible KCl solution compositions (“KCl test solutions”) were prepared by first dissolving varying amounts of the test compounds in an amount of ethanol or water (depending on the solubility of the compound) to create a 5 mg/mL stock compound solution. An amount of this stock compound solution is then added to an aqueous KCl solution. Enough EtOH is then added to the resulting stock compound/KCl solution so that the final KCl test solution contains 1% EtOH. KCl solution standards were similarly prepared by dissolving various amounts of KCl in water and ethanol without adding any test compound. […] The effect of the test compounds on the perception of the bitter taste of an aqueous solution of KCl in humans was evaluated using a “sip and Spit” test as follows. A set of KCl solutions standards was developed and each standard solution was assigned a bitterness taste score of 0-15 (corresponding to aqueous KCl concentrations of 0 mM-120 mM). Panelists were trained to recognize these standards. In addition, before each day of testing, panelists were tested to see if they could determine differences in taste between the standard solutions, if a panelist was unable to recognize a change in KCl concentration, they were excluded from the panel for that day. In a blind taste test, panelists were asked to compare the bitter taste of a small quantity (e.g. 8 ml) of each of the KCl Test Solutions to the taste of a KCl solution standard, without swallowing (see, e.g., Table 1). Specifically, panelists were asked to rate the bitterness of each KCl Test Solution on a scale of 0-15 using the same scale developed for the KCl solution standards. Each sample was tested in 2-4 discrete taste test experiments. Panelists were asked to rinse with water, eat a cracker, and wait approximately 10 minutes between samples.

[2] = system: bitter taste of an aqueous solution of potassium lactate; experiment: Sip and spit taste test of aqueous potassium lactate test solutions; conditions: aqueous potassium lactate (KLac) 41 g/L, 1% EtOH, human panel, dash = at none of the tested conc.
Method: A set of KCl solutions standards was developed and each standard solution was assigned a bitterness taste score of 0-15 (corresponding to aqueous KCl concentrations of 0 mM-120 mM). Panelists were trained to recognize these standards. In addition, before each day of testing, panelists were tested to see if they could determine differences in taste between the standard solutions, if a panelist was unable to recognize a change in KCl concentration, they were excluded from the panel for that day. In a blind taste test, panelists were asked to compare the bitter taste of a small quantity (e.g. 8 ml) of each of the KCl Test Solutions to the taste of a KCl solution standard, without swallowing (see, e.g., Table 1). Specifically, panelists were asked to rate the bitterness of each KCl Test Solution on a scale of 0-15 using the same scale developed for the KCl solution standards. Each sample was tested in 2-4 discrete taste test experiments. Panelists were asked to rinse with water, eat a cracker, and wait approximately 10 minutes between samples. Edible potassium lactate solution compositions (“potassium lactate test solutions”) were prepared by first dissolving varying amounts of the test compounds in an amount of ethanol or water (depending on the solubility of the compound) to create a 5 mg/mL stock compound solution. An amount of this stock compound solution is then added to an aqueous potassium lactate solution. Enough EtOH is then added to the resulting stock compound/potassium lactate solution so that the final potassium lactate test solution contains 1% EtOH. Potassium lactate solution standards were similarly prepared by dissolving various amounts of potassium lactate in water and ethanol without adding any test compound. […] The effect of the test compounds on the perception of the bitter taste of an aqueous solution of potassium lactate in humans was evaluated using the “sip and spit” test described in Example 2.

[3] = system: bitter taste of KCl foodstuff slurries; experiment: Two-alternative forced choice (2AFC) sip and spit test of KCl turkey foodstuff slurries; conditions: turkey slurry with KCl 1.6%, 1% EtOH, 2AFC vs KCl slurry standard, dash = at none of the tested conc.; for minimal effective concentration: Homo sapiens
Method: Edible KCl food compositions (“KCl test foodstuff slurries”) were prepared as follows. Dehydrated, salt-free turkey powder was weighed and mixed with various amounts of KCl and/or NaCl and then solubilized with boiling water to create a homogenized solubilized turkey slurry. Varying amounts of the test compounds were dissolved in an amount of ethanol or water (depending on the solubility of the compound) to create a 5 mg/mL stock compound solution. An amount of this stock compound solution was then added to the turkey slurry. Enough EtOH is then added to the resulting stock compound/turkey slurry so that the slurry contains 1% EtOH. The slurry was again homogenized by boiling and mixing and allowed to cool to yield the final KCl test foodstuff slurry for taste testing. KCl foodstuff slurry standards were similarly prepared without any test compound. […] The effect of the test compounds on the perception of the bitter taste of KCl foodstuff slurries in humans was evaluated using a two-alternative-forced-choice “sip and spit” test as follows. In a blind taste test, panelists received two portions of turkey slurry—one portion being the KCl foodstuff slurry standard and the other being one of the KCl test foodstuff slurries (each prepared as described in Example 5). The panelists tasted each of the portions by sipping and spitting. Each sample was tested in 2-4 discrete taste test experiments. Panelists were asked to rinse with water, eat a cracker, and wait about 10 minutes between samples. In each case, the panelists were asked to compare the bitter taste of the two turkey samples to each other (i.e. panelists were asked to indicate which sample was less bitter).

[4] = system: bitter taste of potassium lactate foodstuffs; experiment: Two-alternative forced choice (2AFC) sip and spit test of potassium lactate turkey foodstuff slurries; conditions: turkey slurry with potassium lactate (KLac) 4.5%, 1% EtOH, 2AFC vs KLac slurry standard, dash = at none of the tested conc.; for minimal effective concentration: Homo sapiens
Method: In a blind taste test, panelists received two portions of turkey slurry—one portion being the KCl foodstuff slurry standard and the other being one of the KCl test foodstuff slurries (each prepared as described in Example 5). The panelists tasted each of the portions by sipping and spitting. Each sample was tested in 2-4 discrete taste test experiments. Panelists were asked to rinse with water, eat a cracker, and wait about 10 minutes between samples. In each case, the panelists were asked to compare the bitter taste of the two turkey samples to each other (i.e. panelists were asked to indicate which sample was less bitter). Edible potassium lactate food compositions (“potassium lactate test foodstuff slurries”) were prepared as follows, Dehydrated, salt-free turkey powder was weighed and mixed with various amounts of potassium lactate and/or sodium lactate and then solubilized with boiling water to create a homogenized solubilized turkey slurry. Varying amounts of the test compounds were dissolved in an amount of ethanol or water (depending on the solubility of the compound) to create a 5 mg/mL stock compound solution. An amount of this stock compound solution was then added to the turkey slurry. Enough EtOH is then added to the resulting stock compound/turkey slurry so that the final slurry contains 1% EtOH. The final slurry was again homogenized by boiling and mixing and allowed to cool to yield the final slurry for taste testing. Potassium lactate foodstuff slurry standards were similarly prepared without any test compound. […] The effect of the test compounds on the perception of the bitter taste of potassium lactate foodstuffs in humans was evaluated using the two-alter native-forced-choice “sip and spit” test described in Example 6.

[5] = read-out: Conc. Where Decrease in Bitter Taste Discerned and p ≦ 0.1
[6] = read-out: Conc. Where Decrease in Bitter Taste Was Discerned
[7] = read-out: Conc. at Which At Least 50% of Panelist Discerned Decrease in Bitter Taste
[8] = read-out: Conc. at Which At Least 50% of Panelist Discerned Decrease in Bitter Taste and p ≦ 0.1

CCCC(=O)Nc1ccc(OC)c(Cl)c1 [Compound 49]
minimal effective concentration [1, 5]: 30 µg/mL | minimal effective concentration [1, 6]: 30 µg/mL | minimal effective concentration [2, 5]: 30 µg/mL | minimal effective concentration [2, 6]: 30 µg/mL | minimal effective concentration [3, 7]: 1 µg/mL | minimal effective concentration [3, 8]: 1 µg/mL | minimal effective concentration [4, 7]: 30 µg/mL | minimal effective concentration [4, 8]: 30 µg/mL

COC(=O)c1cccc2c1NC(c1ccc(Cl)cc1Cl)C1CC=CC21 (stereo not drawn) [Compound 38]
minimal effective concentration [1, 5]: 1 µg/mL | minimal effective concentration [1, 6]: 1 µg/mL | minimal effective concentration [4, 7]: 30 µg/mL

CCOc1ccc(CNc2ccc(C)cc2C)cc1OC [Compound 17]
Conc. Where Decrease in Bitter Taste Was Discerned [1]: 1 ppm | Conc. Where Decrease in Bitter Taste Was Discerned [2]: 1 ppm

CCOc1ccc(CNc2ccccc2C)cc1OC [Compound 3]
minimal effective concentration [1, 5]: 2 µg/mL | minimal effective concentration [1, 6]: 2 µg/mL | minimal effective concentration [2, 5]: 1 µg/mL

Cc1nc2c(C)cccc2c(O)c1CN1CCN(c2ccccc2)CC1 [Compound 48]
minimal effective concentration [1, 5]: 1 µg/mL | minimal effective concentration [2, 5]: 1 µg/mL | minimal effective concentration [2, 6]: 1 µg/mL | minimal effective concentration [3, 7]: 10 µg/mL

O=C(O)c1cccc2c1NC(c1cccc(Br)c1)C1CC=CC21 (stereo not drawn) [Compound 37]
minimal effective concentration [1, 5]: 1 µg/mL | minimal effective concentration [1, 6]: 1 µg/mL | minimal effective concentration [4, 8]: 10 µg/mL

CCC(=O)Nc1ccc(OC)c(Cl)c1 [Compound 51]
minimal effective concentration [1, 5]: 15 µg/mL | minimal effective concentration [1, 6]: 15 µg/mL | minimal effective concentration [4, 7]: 10 µg/mL

CCn1cc(Br)c(C(=O)Nc2ccccc2C(=O)OC)n1 [Compound 25]
minimal effective concentration [2, 5]: 10 µg/mL | minimal effective concentration [2, 6]: 10 µg/mL | minimal effective concentration [4, 7]: 1 µg/mL

CCn1ncc(Br)c1C(=O)Nc1ccccc1C(=O)OC [Compound 23]
Conc. Where Decrease in Bitter Taste Discerned and p ≦ 0.1 [1]: 40 ppm | Conc. Where Decrease in Bitter Taste Was Discerned [1]: 40 ppm | Conc. at Which At Least 50% of Panelist Discerned Decrease in Bitter Taste and p ≦ 0.1 [4]: 1 ppm

COC(=O)c1ccccc1NC(=O)c1c(I)cnn1C [Compound 24]
minimal effective concentration [3, 8]: 10 µg/mL | minimal effective concentration [4, 8]: 30 µg/mL

COc1ccc(NCc2ccccc2C)cc1OC [Compound 20]
minimal effective concentration [1, 5]: 1 µg/mL | minimal effective concentration [2, 5]: 5 µg/mL

Cc1ccc(NC(=O)CCOc2ccccc2)cc1Cl [Compound 53]
Conc. Where Decrease in Bitter Taste Discerned and p ≦ 0.1 [1]: 25 ppm | Conc. Where Decrease in Bitter Taste Was Discerned [1]: 25 ppm | Conc. Where Decrease in Bitter Taste Discerned and p ≦ 0.1 [2]: 1 ppm | Conc. Where Decrease in Bitter Taste Was Discerned [2]: 1 ppm | Conc. at Which At Least 50% of Panelist Discerned Decrease in Bitter Taste [3]: 30 ppm | Conc. at Which At Least 50% of Panelist Discerned Decrease in Bitter Taste and p ≦ 0.1 [3]: 30 ppm | Conc. at Which At Least 50% of Panelist Discerned Decrease in Bitter Taste [4]: 30 ppm

Cc1ccc2nc3c(F)c(N4CCOCC4)c(F)c(F)c3c(C)c2c1 [Compound 46]
minimal effective concentration [1, 5]: 1 µg/mL | minimal effective concentration [2, 6]: 30 µg/mL | minimal effective concentration [3, 7]: 1 µg/mL

CCn1ncc(Cl)c1C(=O)Nc1cccc(Cl)c1Cl [Compound 29]
Conc. Where Decrease in Bitter Taste Discerned and p ≦ 0.1 [1]: 10 ppm | Conc. Where Decrease in Bitter Taste Was Discerned [2]: 5 ppm | Conc. at Which At Least 50% of Panelist Discerned Decrease in Bitter Taste [3]: 1 ppm | Conc. at Which At Least 50% of Panelist Discerned Decrease in Bitter Taste and p ≦ 0.1 [3]: 1 ppm

CCOC(=O)c1ccccc1NC(=O)c1c(Cl)cnn1C [Compound 26]
minimal effective concentration [2, 5]: 1 µg/mL | minimal effective concentration [3, 8]: 1 µg/mL | minimal effective concentration [4, 7]: 30 µg/mL

Cc1ccc(NC(=O)C2COc3ccccc3O2)cc1Cl (stereo not drawn) [Compound 56]
Conc. Where Decrease in Bitter Taste Discerned and p ≦ 0.1 [1]: 1 ppm | Conc. Where Decrease in Bitter Taste Discerned and p ≦ 0.1 [2]: 10 ppm | Conc. at Which At Least 50% of Panelist Discerned Decrease in Bitter Taste [4]: 1 ppm | Conc. at Which At Least 50% of Panelist Discerned Decrease in Bitter Taste and p ≦ 0.1 [4]: 1 ppm

COc1ccc(NC(=O)CCOc2cccc(C)c2)cc1 [Compound 52]
Conc. Where Decrease in Bitter Taste Discerned and p ≦ 0.1 [1]: 10 ppm | Conc. Where Decrease in Bitter Taste Discerned and p ≦ 0.1 [2]: 30 ppm | Conc. at Which At Least 50% of Panelist Discerned Decrease in Bitter Taste and p ≦ 0.1 [3]: 10 ppm

Cc1c2ccccc2nc2c(F)c(N3CCN(C)CC3)c(F)c(F)c12 [Compound 44]
minimal effective concentration [1, 5]: 10 µg/mL | minimal effective concentration [1, 6]: 10 µg/mL | minimal effective concentration [2, 5]: 10 µg/mL | minimal effective concentration [3, 7]: 10 µg/mL

COc1ccc(CNc2cc(C)ccc2C)cc1OC [Compound 14]
Conc. Where Decrease in Bitter Taste Discerned and p ≦ 0.1 [1]: 1 ppm | Conc. Where Decrease in Bitter Taste Was Discerned [2]: 5 ppm
